Results reported in patent US11298356B1, “Amorphous solid dispersions of dasatinib and uses thereof” (NANOCOPOEIA, LLC, priority 2020, dated 2022).
In brackets after ≈: the same amount, converted by molar mass.

Legend:
[1] = crystalline forms; low solubility/high permeability; cited from earlier work
[2] = Aqueous solubility of dasatinib (internal experimentation); assay type: physicochemical; conditions: aqueous medium
Text: Dasatinib in crystalline forms is categorized as a Biopharmaceutical Classification System (“BCS”) Class II (low solubility/high permeability) compound. […] A preparation of dasatinib in a form that is intended to enhance its solubility could increase its bioavailability. One approach for enhancing solubility is to produce an amorphous solid dispersion.

[3] = Comparative Example; promptly after preparation
Experimental: (§1) Each of the resulting ASDs was placed on stability under accelerated conditions at 40° C./75% RH. The ASDs were assessed at t=0 (i.e., after the secondary drying step), 2 weeks, 1 month, 2 months, 3 months, and 6 months for appearance, amorphicity, glass transition temperature, water content, and assay/total impurities.
In general, about 5-10 mg of ASD powder was loaded in a TA Tzero low-mass aluminum pan and sealed with a Tzero lid.

[4] = Comparative Example; promptly after spray drying and drying
Experimental: as §1
Amorphicity (i.e., the lack of crystallinity) for the ASDs was assessed by XRD. Diffraction patterns were obtained using a Rigaku MiniFlex 600. The X-ray source was a long anode Cu Kα. Samples were prepared by placing a small amount of ASD powder on a Rigaku zero-background sample holder with a 0.1 mm indent. A glass slide was then used to firmly pack the powder and ensure the surface of the sample was level with the edge of the sample holder.
Rigaku Data Analysis Software PDXL 2.4.2.0 was used to determine crystallinity. Briefly, a linear background was obtained by connecting the beginning and end of each diffractogram. Peaks were then fitted to split pseudo-Voigt shape by the Lorentzian function. Generally, narrow peaks with full width at half maximum (FWHM) less than 1° were assigned as crystalline phase. If no crystalline phase was detected, the sample was deemed to be amorphous.

SMILES | Biopharmaceutical Classification System (BCS) class [1] | solubility ([2]; pH 2, simulated gastric fluid) [µg/mL] | solubility ([2]; pH 6.2, aqueous buffer) [µg/mL] | glass transition temperature (Tg) [3] [°C] | XRD crystallinity [4]
Cc1nc(Nc2ncc(C(=O)Nc3c(C)cccc3Cl)s2)cc(N2CCN(CCO)CC2)n1 [Dasatinib, N-(2-chloro-6-methylphenyl)-2-[[6-[4-(2-hydroxyethyl)-1-piperazinyl]-2-methyl-4-pyrimidinyl]amino]-5-thiazolecarboxamide] | Class II | ~1400 (≈ 2870 µM) | < 1 | – | –
Cc1nc(Nc2ncc(C(=O)Nc3c(C)cccc3Cl)s2)cc(N2CCN(CCO)CC2)n1 [spray-dried material of 100% dasatinib] | – | – | – | 125.61 | exhibited crystalline character
